Results from patent US12264170B2, “Antimicrobial organosilanes” (TOPIKOS SCIENTIFIC, INC., priority 2019, dated 2025).
Several values for one entry are separate records, joined by “and”; a condition that tells them apart may be missing. Equal entries are not always repeated.

Legend:
[1] = test system: Staphylococcus aureus ATCC 33591; experiment: MIC microdilution assay; type: cell-based; conditions: S. aureus ATCC 33591; CAMHB; 35±2° C. 18 to 20 hours; two values given
Description: (§1) Strain numbers starting with “ATCC” were acquired from the American Type Culture Collection (Manassas, VA), while strain numbers starting with “CDC” were acquired from the Centers for Disease Control and Prevention (Atlanta, GA). All strains were maintained as −80° C. frozen glycerol stocks. S. aureus and P. aeruginosa were grown overnight on Tryptic Soy Agar (TSA) plates at 35±2° C., ambient atmosphere, while S. pyogenes was grown overnight on TSA+5% defibrinated sheep blood at 35±2° C., 5% CO2. All fungal species (i.e. C. albicans, C. auris and C. herbarum) were grown on Sabouraud Dextrose Agar (SDA) plates. C. herbarum was grown at 25±2° C. for 5 to 7 days, while all other fungal strains were grown at 35±2° C. overnight.
(§2) Test articles Compound 2 (batch #2G13A0.368) and Compound 23 (batch #2G17A0.372) were received and stored at 4° C. The antibiotic Tobramycin and antifungal Amphotericin B were used as quality control (QC) compounds for the MIC assay. Stock solutions of 3.2 mg/mL Tobramycin (Sigma-Aldrich, cat #T1783-500MG) and 3.2 mg/mL Amphotericin B (CP Lab Chemicals, cat #TOK-A007-1G) were prepared in sterile ultrapure water.
(§3) For bacteria strains, a few colonies of each strain were collected with a sterile swab and used to make a McFarland 0.5 standard solution (approximately 1×10^8 CFU/mL) in sterile PBS. The McFarland was then diluted 1:180 in Cation Adjusted Muller-Hinton Broth (CAMHB) for S. aureus and P. aeruginosa, and in […]+5% defibrinated sheep blood for S. pyogenes. 90 μL of this inoculum was combined with 10 μL of the 10× test article in a 96-well plate for a final concentration of 1×.
(§4) All bacterial-strain MIC 96-well plates were incubated at 35±2° C. for 18 to 20 hours, while all Candida MIC 96-well plates were incubated at 35±2° C. for 24 to 48 hours. C. herbarum MIC 96-well plates were incubated at 25±2° C. for 3 to 5 days, until growth was visible in the growth control wells. After incubation, the 96-well plates were examined visually and on a spectrophotometer at absorbance OD650. […]

[2] = test system: P. aeruginosa ATCC 27853; experiment: MIC microdilution assay; type: cell-based, Pseudomonas aeruginosa; conditions: CAMHB, 35±2° C. 18 to 20 hours, two values given
Description: as §1, §2, §3, §4

[3] = test system: Candida auris CDC 0381; experiment: MIC microdilution assay; type: cell-based; conditions: C. auris CDC 0381; RPMI media; 35±2° C. 24 to 48 hours; two values given
Description: as §1, §2, §3
For the yeasts C. albicans and C. auris, a McFarland 0.5 standard solution in sterile PBS was similarly prepared (approximately 1×10^6 CFU/mL) and was subsequently diluted 1:180 in RPMI 1640 media buffered with 0.165 M MOPS at pH 7.0 (herein referred to as “RPMI media”). 90 μL of the Candida inoculum was combined with 10 μL of the 10× test article in a 96-well plate for a final concentration of 1×.
All bacterial-strain MIC 96-well plates were incubated at 35±2° C. for 18 to 20 hours, while all Candida MIC 96-well plates were incubated at 35±2° C. for 24 to 48 hours. C. herbarum MIC 96-well plates were incubated at 25±2° C. for 3 to 5 days, until growth was visible in the growth control wells. After incubation, the 96-well plates were examined visually and on a spectrophotometer at absorbance OD650. MIC is defined as the lowest concentration of a compound in which no visible growth is observed.

[4] = test system: P. aeruginosa ATCC 27853; experiment: MBC/MFC determination; type: cell-based, Pseudomonas aeruginosa; conditions: plated after 18 to 20 hours incubation, two values given
Description: (§5) 10 μL of liquid from each test condition was plated on the appropriate agar media for each test strain. For bacteria strains, plating for MBC occurred after 18 to 20 hours incubation. For the Candida species, plating for MFC occurred after 48 hours incubation, while C. herbarum plating for MFC occurred 3 days after incubation when growth in growth control wells was visually observed. Once the liquid from the 96-well plate has been allowed to air dry in a biosafety cabinet, the agar plates were incubated under the appropriate conditions and colony formation was assessed. MBC/MFC is defined as the lowest concentration of a compound in which no colonies were recovered.

[5] = test system: S. pyogenes ATCC 51339; experiment: MBC/MFC determination; type: cell-based, Steptococcus pyogenes; conditions: plated after 18 to 20 hours incubation, two values given
Description: as §5

[6] = test system: Candida albicans ATCC 90028; experiment: MBC/MFC determination; type: cell-based; conditions: C. albicans ATCC 90028; plated after 48 hours incubation; two values given
Description: as §5

[7] = test system: Candida auris CDC 0381; experiment: MBC/MFC determination; type: cell-based; conditions: C. auris CDC 0381; plated after 48 hours incubation; two values given
Description: as §5

[8] = test system: Cladosporium herbarum ATCC MYA-4682; experiment: MBC/MFC determination; type: cell-based; conditions: C. herbarum ATCC MYA-4682; plated 3 days after incubation; two values given
Description: as §5

[9] = Dissolution of isolated product in water; type: physicochemical; conditions: observation
[10] = pH of aqueous solution; type: physicochemical; conditions: 2% solution in water

Row | SMILES | MIC [1] [µg/mL] | MIC [2] [µg/mL] | MIC [3] [µg/mL] | MBC/MFC [4] [µg/mL] | MBC/MFC [5] | MBC/MFC [6] | MBC/MFC [7] [µg/mL] | MBC/MFC [8] [µg/mL] | dissolution in water [9] | pH of solution [10]
1 | CCCCCCCCCCCCCCCCCC[N+](C)(C)CCC[Si](OCC(CO)(CO)NCC(O)CS(=O)(=O)[O-])(OCC(CO)(CO)NCC(O)CS(=O)(=O)[O-])OCC(CO)(CO)NCC(O)CS(=O)(=O)O.[Cl-].[Na+].[Na+] (stereo not shown) [Compound 2] | 1 | >64 | 1 | >64 | >64 µg/mL and 64 µg/mL | 2 µg/mL and 1 µg/mL | 1 | 2 | – | –
2 | CCCCCCCCCCCCCCCCCC[N+](C)(C)CCC[Si](OCC(CO)(CO)NCC(O)CS(=O)(=O)[O-])(OCC(CO)(CO)NCC(O)CS(=O)(=O)O)OCC(CO)(CO)NCC(O)CS(=O)(=O)O (stereo not shown) [Example 24, monosodium mono(8-(3-(dimethyl(octadecyl)ammonio)propyl)-2,14-dihydroxy-8-(3-hydroxy-2-((2-hydroxy-3-sulfopropyl)amino)-2-(hydroxymethyl)propoxy)-5,5,11,11-tetrakis(hydroxymethyl)-7,9-dioxa-4,12-diaza-8-silapentadecane-1,15-disulfonate); chloride] | – | – | – | – | – | – | – | – | readily dissolved in water | 7.65
